Test results published in PubChem BioAssay (NCI).
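Growth conditions: 96-well plates. Treatment: test compound, 48 hours, 5 concentrations. Analysis: linear interpolation between bracketing concentrations; unreached endpoints set to highest concentration. Here, GI50 denotes the concentration required for 50% inhibition of growth. At the TGI there is no net growth.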

system: 786-0 renal; assay: inhibition of tumour cell growth, NCI panel, 48 h

SMILES | TGI
Cc1ccnc2[nH]c(-c3ccc4ccccc4c3)cc(=O)c12 | 5.97 µM
N#CC1C(=S)NC(c2ccccc2)=CC12CCCCC2 (stereo not drawn) | > 100 µM
CN=C(n1ccnc1)n1ccnc1 | > 100 µM
CC(=O)N=C1N(/C=C2\C(=O)Oc3ccccc3C2=O)C(=O)/C(=C/c2cccc(Cl)c2Cl)N1C | > 100 µM

system: A498 renal; assay: inhibition of tumour cell growth, NCI panel, 48 h

SMILES | TGI
Cc1ccnc2[nH]c(-c3ccc4ccccc4c3)cc(=O)c12 | 4.87 µM
N#CC1C(=S)NC(c2ccccc2)=CC12CCCCC2 (stereo not drawn) | 50.3 µM
CN=C(n1ccnc1)n1ccnc1 | > 100 µM
CC(=O)N=C1N(/C=C2\C(=O)Oc3ccccc3C2=O)C(=O)/C(=C/c2cccc(Cl)c2Cl)N1C | 21.1 µM

system: A549 NSCLC; assay: inhibition of tumour cell growth, NCI panel, 48 h

SMILES | TGI
Cc1ccnc2[nH]c(-c3ccc4ccccc4c3)cc(=O)c12 | 16.1 µM
N#CC1C(=S)NC(c2ccccc2)=CC12CCCCC2 (stereo not drawn) | > 100 µM
CN=C(n1ccnc1)n1ccnc1 | > 100 µM
CC(=O)N=C1N(/C=C2\C(=O)Oc3ccccc3C2=O)C(=O)/C(=C/c2cccc(Cl)c2Cl)N1C | > 100 µM

system: ACHN renal; assay: inhibition of tumour cell growth, NCI panel, 48 h

SMILES | TGI
Cc1ccnc2[nH]c(-c3ccc4ccccc4c3)cc(=O)c12 | 13.6 µM
N#CC1C(=S)NC(c2ccccc2)=CC12CCCCC2 (stereo not drawn) | 72.3 µM
CC(=O)N=C1N(/C=C2\C(=O)Oc3ccccc3C2=O)C(=O)/C(=C/c2cccc(Cl)c2Cl)N1C | 34.3 µM

system: BT-549 breast; assay: inhibition of tumour cell growth, NCI panel, 48 h

SMILES | TGI
Cc1ccnc2[nH]c(-c3ccc4ccccc4c3)cc(=O)c12 | 31.8 µM
N#CC1C(=S)NC(c2ccccc2)=CC12CCCCC2 (stereo not drawn) | 35.7 µM
CN=C(n1ccnc1)n1ccnc1 | > 100 µM
CC(=O)N=C1N(/C=C2\C(=O)Oc3ccccc3C2=O)C(=O)/C(=C/c2cccc(Cl)c2Cl)N1C | 75.3 µM

system: CAKI-1 renal; assay: inhibition of tumour cell growth, NCI panel, 48 h

SMILES | GI50 | TGI
Cc1ccnc2[nH]c(-c3ccc4ccccc4c3)cc(=O)c12 | 2.39 µM | 14.4 µM
N#CC1C(=S)NC(c2ccccc2)=CC12CCCCC2 (stereo not drawn) |  | > 100 µM
CN=C(n1ccnc1)n1ccnc1 |  | > 100 µM
CC(=O)N=C1N(/C=C2\C(=O)Oc3ccccc3C2=O)C(=O)/C(=C/c2cccc(Cl)c2Cl)N1C |  | 65.8 µM

system: CCRF-CEM leukemia; assay: inhibition of tumour cell growth, NCI panel, 48 h

SMILES | TGI
Cc1ccnc2[nH]c(-c3ccc4ccccc4c3)cc(=O)c12 | 8.43 µM
N#CC1C(=S)NC(c2ccccc2)=CC12CCCCC2 (stereo not drawn) | 56.4 µM
CN=C(n1ccnc1)n1ccnc1 | > 100 µM
CC(=O)N=C1N(/C=C2\C(=O)Oc3ccccc3C2=O)C(=O)/C(=C/c2cccc(Cl)c2Cl)N1C | > 100 µM

system: COLO 205 colon; assay: inhibition of tumour cell growth, NCI panel, 48 h

SMILES | TGI
Cc1ccnc2[nH]c(-c3ccc4ccccc4c3)cc(=O)c12 | 13.3 µM
N#CC1C(=S)NC(c2ccccc2)=CC12CCCCC2 (stereo not drawn) | > 100 µM
CN=C(n1ccnc1)n1ccnc1 | > 100 µM
CC(=O)N=C1N(/C=C2\C(=O)Oc3ccccc3C2=O)C(=O)/C(=C/c2cccc(Cl)c2Cl)N1C | 74 µM

system: DU-145 prostate; assay: inhibition of tumour cell growth, NCI panel, 48 h

SMILES | TGI
Cc1ccnc2[nH]c(-c3ccc4ccccc4c3)cc(=O)c12 | 35.1 µM
N#CC1C(=S)NC(c2ccccc2)=CC12CCCCC2 (stereo not drawn) | 61.5 µM
CN=C(n1ccnc1)n1ccnc1 | > 100 µM
CC(=O)N=C1N(/C=C2\C(=O)Oc3ccccc3C2=O)C(=O)/C(=C/c2cccc(Cl)c2Cl)N1C | > 100 µM

system: EKVX NSCLC; assay: inhibition of tumour cell growth, NCI panel, 48 h

SMILES | TGI
Cc1ccnc2[nH]c(-c3ccc4ccccc4c3)cc(=O)c12 | 26.8 µM
N#CC1C(=S)NC(c2ccccc2)=CC12CCCCC2 (stereo not drawn) | 44.6 µM
CN=C(n1ccnc1)n1ccnc1 | > 100 µM
CC(=O)N=C1N(/C=C2\C(=O)Oc3ccccc3C2=O)C(=O)/C(=C/c2cccc(Cl)c2Cl)N1C | > 100 µM

system: HCC-2998 colon; assay: inhibition of tumour cell growth, NCI panel, 48 h

SMILES | TGI
Cc1ccnc2[nH]c(-c3ccc4ccccc4c3)cc(=O)c12 | 19.4 µM
N#CC1C(=S)NC(c2ccccc2)=CC12CCCCC2 (stereo not drawn) | > 100 µM
CN=C(n1ccnc1)n1ccnc1 | > 100 µM
CC(=O)N=C1N(/C=C2\C(=O)Oc3ccccc3C2=O)C(=O)/C(=C/c2cccc(Cl)c2Cl)N1C | 31.4 µM

system: HCT-116 colon; assay: inhibition of tumour cell growth, NCI panel, 48 h

SMILES | GI50 | TGI
Cc1ccnc2[nH]c(-c3ccc4ccccc4c3)cc(=O)c12 | 0.428 µM | 2.31 µM
N#CC1C(=S)NC(c2ccccc2)=CC12CCCCC2 (stereo not drawn) |  | 62.1 µM
CN=C(n1ccnc1)n1ccnc1 |  | > 100 µM
CC(=O)N=C1N(/C=C2\C(=O)Oc3ccccc3C2=O)C(=O)/C(=C/c2cccc(Cl)c2Cl)N1C |  | > 100 µM

system: HCT-15 colon; assay: inhibition of tumour cell growth, NCI panel, 48 h

SMILES | TGI
Cc1ccnc2[nH]c(-c3ccc4ccccc4c3)cc(=O)c12 | 10.8 µM
N#CC1C(=S)NC(c2ccccc2)=CC12CCCCC2 (stereo not drawn) | 53 µM
CN=C(n1ccnc1)n1ccnc1 | > 100 µM
CC(=O)N=C1N(/C=C2\C(=O)Oc3ccccc3C2=O)C(=O)/C(=C/c2cccc(Cl)c2Cl)N1C | 32.5 µM

system: HL-60(TB) leukemia; assay: inhibition of tumour cell growth, NCI panel, 48 h

SMILES | GI50 | TGI
Cc1ccnc2[nH]c(-c3ccc4ccccc4c3)cc(=O)c12 | 0.202 µM | 0.609 µM
N#CC1C(=S)NC(c2ccccc2)=CC12CCCCC2 (stereo not drawn) |  | 52.1 µM
CN=C(n1ccnc1)n1ccnc1 |  | > 100 µM
CC(=O)N=C1N(/C=C2\C(=O)Oc3ccccc3C2=O)C(=O)/C(=C/c2cccc(Cl)c2Cl)N1C |  | > 100 µM
